Laboratory results published in patent US7511047B2, “Kinase inhibitors” (Cytopia Research Pty Ltd, priority 2002, dated 2009).

Experiments:
Format in all cases: biochemical
Jak2 = biological target: T1, Jak2 (Homo sapiens, UniProt O60674); experiment: JAK2 kinase domain assay (ELISA or Alphascreen); conditions: capacity to inhibit 50% of activity at 50 μM; read-out: Jak2 inhibitory activity
T1 construct: The kinase domain of humanJAK2 was amplified from U937mRNA; His tag (from pFastBac HTc vector) (N); made in house; host or cells: baculovirus; Sf9 insect cells for virus, High Five cells for large-scale production
T1 sequence (O60674 849-1124 limits assumed): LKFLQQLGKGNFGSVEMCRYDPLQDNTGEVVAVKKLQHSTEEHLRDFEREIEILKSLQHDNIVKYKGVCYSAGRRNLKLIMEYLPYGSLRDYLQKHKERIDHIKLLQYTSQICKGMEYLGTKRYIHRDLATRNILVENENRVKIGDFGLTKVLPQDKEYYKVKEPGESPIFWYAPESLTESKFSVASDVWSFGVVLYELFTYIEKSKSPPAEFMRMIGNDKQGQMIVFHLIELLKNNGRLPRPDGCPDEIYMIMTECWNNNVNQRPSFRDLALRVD
Method: (§1) For screening purposes, compounds were diluted in 96 well plates at a concentration of 20 μM. Plates were warmed at 37° C. for 30 minutes before assay.
(§2) • JAK1 PCR products were cloned into the pFastBac HTb expression vector (Gibco) via the Xho I and Kpn I sites. The JAK1 plasmid was then transformed into competent DH10Bac cells (Gibco), and the recombinant baculovirus produced prepared for transfection into Sf9 insect cells. JAK2 • The kinase domain of humanJAK2 was amplified from U937mRNA using the polymerase chain reaction with the following primers:
• JAK2 PCR products were cloned into the pFastBac HTc expression vector (Gibco) via the Sal I and Not I sites. The JAK2 plasmid was then transformed into competent DH10Bac cells (Gibco), and the recombinant baculovirus produced prepared for transfection into Sf9 insect cells. JAK3 • The kinase domain of humanJAK3 was amplified from U937mRNA using the polymerase chain reaction with the following primers: […]
(§3) Baculovirus preparations from each of the JAK family members were infected into five litres of High Five cells (Invitrogen) grown in High Five serum free medium (Invitrogen) to a cell density of approximately 1-2×10^6 cells/ml. Cells are infected with virus at a MOI of 0.8-3.0. Cells were harvested and lysed. JAK kinase domains were purified by affinity chromatography on a Probond (Invitrogen) nickel chelate affinity column.
(§4) Kinase assays were performed either in a 96 well capture-based ELISA assay or in 384 well Optiplates (Packard) using an Alphascreen Protein Tyrosine Kinase kit. In either casse using approximately 1.5 μg of affinity purified PTK domain in the presence of 50 mM HEPES, pH 7.5, 10 mM MgCl2, 150 mM NaCl and 10 μM-1 mM ATP. The biotinylated substrate biotin-EGPWLEEEEEAYGWMDF-NH2 (SEQ ID NO:9) (final concentration 5 μM) was used as substrate. In the ELISA assay tyrosine phosphorylation was quantitated following transfer to an avidin coated ELISA plate using peroxidase-linked anti-phospho-tyrosine antibody PY20. In the Alphascreen assay, Alphascreen phosphotyrosine acceptor beads followed by streptavidin donor beads were added under subdued light. The ELISA plates were read on a BMG Fluorostar, the Alphascreen plates were read on a Packard Fusion Alpha. Inhibitors were added to the assays fifteen minutes prior to the addition of ATP. Inhibitors were added in aqueous DMSO, with DMSO concentrations never exceeding 1%.

Jak3 = biological target: T2, Jak3 (Homo sapiens, UniProt P52333); experiment: JAK3 kinase domain assay (ELISA or Alphascreen); conditions: capacity to inhibit 50% of activity at 50 μM; read-out: Jak3 inhibitory activity
T2 construct: The kinase domain of humanJAK3 was amplified from U937mRNA; His tag (from pFastBac HTb vector) (N); made in house; host or cells: baculovirus; Sf9 insect cells for virus, High Five cells for large-scale production
T2 sequence (P52333 822-1111 limits assumed): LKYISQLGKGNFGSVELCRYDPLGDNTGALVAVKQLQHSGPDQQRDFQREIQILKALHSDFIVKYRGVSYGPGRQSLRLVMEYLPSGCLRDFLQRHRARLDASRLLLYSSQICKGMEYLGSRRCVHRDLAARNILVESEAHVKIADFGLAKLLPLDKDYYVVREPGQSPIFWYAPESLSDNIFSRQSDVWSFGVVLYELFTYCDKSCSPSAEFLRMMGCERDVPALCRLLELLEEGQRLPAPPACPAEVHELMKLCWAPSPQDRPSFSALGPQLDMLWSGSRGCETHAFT
Method: as §1
• JAK2 PCR products were cloned into the pFastBac HTc expression vector (Gibco) via the Sal I and Not I sites. The JAK2 plasmid was then transformed into competent DH10Bac cells (Gibco), and the recombinant baculovirus produced prepared for transfection into Sf9 insect cells. JAK3 • The kinase domain of humanJAK3 was amplified from U937mRNA using the polymerase chain reaction with the following primers:
as §2, with “JAK3” for “JAK1”, “TYK2” for “JAK2”, “humanTYK2” for “humanJAK2”, “A549 mRNA” for “U937mRNA”, “primers: […]” for “primers:”
as §3, §4

abl = biological target: T3, abl (Homo sapiens, UniProt P00519); experiment: abl kinase assay (ELISA or Alphascreen); conditions: capacity to inhibit 50% of activity at 50 μM; read-out: abl inhibitory activity
T3 sequence (P00519 242-493 limits assumed): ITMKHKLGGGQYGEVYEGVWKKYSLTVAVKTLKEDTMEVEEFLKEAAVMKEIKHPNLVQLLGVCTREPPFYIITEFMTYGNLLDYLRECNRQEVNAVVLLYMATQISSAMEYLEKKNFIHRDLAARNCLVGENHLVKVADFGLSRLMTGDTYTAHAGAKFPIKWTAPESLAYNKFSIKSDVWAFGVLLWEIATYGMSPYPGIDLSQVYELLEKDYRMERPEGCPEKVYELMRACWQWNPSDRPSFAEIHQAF
Method: as §1, §4

hck = hck (Homo sapiens, UniProt P08631); experiment: hck kinase assay (ELISA or Alphascreen); conditions: capacity to inhibit 50% of activity at 50 μM; read-out: hck inhibitory activity
Chain of hck (P08631 262-515 limits assumed, species assumed): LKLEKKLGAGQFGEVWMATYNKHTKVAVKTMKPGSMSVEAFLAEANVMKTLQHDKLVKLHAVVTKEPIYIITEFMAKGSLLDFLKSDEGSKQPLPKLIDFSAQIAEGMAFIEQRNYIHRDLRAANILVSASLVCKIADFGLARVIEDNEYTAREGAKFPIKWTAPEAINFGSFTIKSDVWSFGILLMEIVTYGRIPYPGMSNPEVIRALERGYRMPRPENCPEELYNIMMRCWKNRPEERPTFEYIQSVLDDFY
Method: as §1, §4

kdr = kdr (Homo sapiens, UniProt P35968); experiment: kdr kinase assay (ELISA or Alphascreen); conditions: capacity to inhibit 50% of activity at 50 μM; read-out: kdr inhibitory activity
Chain of kdr (P35968 834-1162 limits assumed, species assumed): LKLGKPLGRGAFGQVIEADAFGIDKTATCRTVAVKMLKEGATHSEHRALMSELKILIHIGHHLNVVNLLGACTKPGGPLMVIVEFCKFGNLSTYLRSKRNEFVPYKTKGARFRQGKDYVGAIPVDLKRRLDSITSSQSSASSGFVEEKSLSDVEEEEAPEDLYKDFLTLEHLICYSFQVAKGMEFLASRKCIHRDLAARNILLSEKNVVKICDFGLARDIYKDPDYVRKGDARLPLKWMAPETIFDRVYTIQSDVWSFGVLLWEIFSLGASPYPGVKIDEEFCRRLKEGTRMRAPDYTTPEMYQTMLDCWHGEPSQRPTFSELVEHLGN
Method: as §1, §4

inhibition at 50 µM (Jak2) [%] | inhibition at 50 µM (Jak3) [%] | inhibition at 50 µM (abl) [%] | inhibition at 50 µM (hck) [%] | inhibition at 50 µM (kdr) [%] | Compound
> 50 | > 50 | > 50 | > 50 | > 50 | C[C@H](Nc1cncc(-n2cnc3cc(C(=O)NCCCCN4CCOCC4)ccc32)n1)c1ccccc1
> 50 | < 50 | > 50 | > 50 | > 50 | C[C@H](Nc1cncc(-n2cnc3cc(C(N)=O)ccc32)n1)c1ccccc1
> 50 | < 50 | > 50 | > 50 | > 50 | C[C@H](Nc1cncc(-n2cnc3ccc(C(N)=O)cc32)n1)c1ccccc1
> 50 | < 50 | > 50 | > 50 | > 50 | C[C@H](Nc1cncc(-n2cnc3ccc(C4=NCCO4)cc32)n1)c1ccccc1
< 50 | < 50 | < 50 | > 50 | > 50 | c1ccc2c(c1)ncn2-c1cncc(Nc2ccc(N3CCOCC3)cc2)n1
< 50 | < 50 | > 50 | > 50 | > 50 | C[C@@H](Nc1cncc(-n2cnc(-c3ccccc3)c2)n1)c1ccccc1
> 50 | < 50 | > 50 | > 50 | > 50 | Cc1ccc2c(c1)ncn2-c1cncc(N[C@@H](C)c2ccccc2)n1
> 50 | > 50 | > 50 | > 50 | > 50 | C[C@H](Nc1cncc(-n2cnc3cc(-c4cccnc4)ccc32)n1)c1ccccc1
< 50 | < 50 | > 50 | > 50 | < 50 | C[C@@H](Nc1cncc(-n2ccnc2)n1)c1ccccc1
> 50 | > 50 | > 50 | > 50 | > 50 | C[C@H](Nc1cncc(-n2cnc3ccc(NC(=O)C(C)(C)C)cc32)n1)c1ccccc1
< 50 | < 50 | > 50 | > 50 | > 50 | C[C@H](Nc1cncc(-n2cnc3cc(C(=O)N4CCOCC4)ccc32)n1)c1ccccc1
< 50 | < 50 | > 50 | > 50 | > 50 | C[C@H](Nc1cncc(-n2cnc3cc(NC(=O)c4ccncc4)ccc32)n1)c1ccccc1
< 50 | < 50 | > 50 | > 50 | > 50 | C[C@H](Nc1cncc(-n2cnc3ccc(NC(=O)c4ccccc4)cc32)n1)c1ccccc1
< 50 | < 50 | < 50 | < 50 | < 50 | Cc1nc2ccccc2n1-c1cncc(N[C@@H](C)c2ccccc2)n1
< 50 | < 50 | < 50 | > 50 | < 50 | C[C@H](Nc1cncc(-n2cnc3ccc(C(=O)N4CCN(C)CC4)cc32)n1)c1ccccc1
> 50 | < 50 | > 50 | > 50 | > 50 | C[C@H](Nc1cncc(-n2cnc3cc(NC(=O)c4cccnc4)ccc32)n1)c1ccccc1
< 50 | < 50 | > 50 | > 50 | < 50 | CC(Nc1cncc(-n2cnc3ccccc32)n1)c1ccc(-c2ccccc2)cc1 (stereo not shown)
> 50 | > 50 | > 50 | > 50 | > 50 | C[C@H](Nc1cncc(-n2cnc3ccc(C(=O)NCCO)cc32)n1)c1ccccc1
> 50 | > 50 | > 50 | > 50 | > 50 | C[C@H](Nc1cncc(-n2cnc3ccc(C(=O)NCCCCN4CCOCC4)cc32)n1)c1ccccc1
< 50 | > 50 | < 50 | > 50 | < 50 | Cc1nccn1-c1cncc(NCc2ccc(F)cc2)n1
